Measurements published in ChEMBL document CHEMBL1156829 (Proc Natl Acad Sci U S A, 2008).

Experiments:
Plasmodium falciparum [1] = assay: NOVARTIS: Inhibition of Plasmodium falciparum W2 (drug-resistant) proliferation in erythrocyte-based infection assay; format: functional, organism-based; details: Plasmodium falciparum, W2; read-out: EC50
[2] = NOVARTIS: Cytotoxicity against human hepatocellular carcinoma cell line (Huh7); format: toxicity, cell-based, Huh-7; details: Huh7 cells (hepatocellular carcinoma cell line)
Plasmodium falciparum [3] = assay: NOVARTIS: Inhibition of Plasmodium falciparum 3D7 (drug-susceptible) proliferation in erythrocyte-based infection assay; format: functional, organism-based; details: Plasmodium falciparum, 3D7

Row | Structure (SMILES) | EC50 (Plasmodium falciparum [1]) [nM] | CC50 [2] [µM] | EC50 (Plasmodium falciparum [3]) [nM]
1 | COc1ccc(-n2nc([N+](=O)[O-])c(Nc3ccc([N+](=O)[O-])cc3C)[n+]2[O-])cc1 | 320 | > 100 | 1300
2 | CCCCCc1ccc(C(=O)Oc2ccccc2-c2nc3cc(C)ccn3c2NC(C)(C)CC(C)(C)C)cc1 | 93.4 | > 10 | 739
3 | Nc1ccc2nc(C=Cc3ccc(Cl)cc3)[nH]c2c1 | 122 | 6.9 | 580
4 | CCN1CC=C2C(C#N)=C(N)C(C#N)(C#N)[C@H](c3ccc(C)s3)[C@H]2C1 | 464 | > 100 | 1680
5 | CC(=O)Nc1ccc(NC2=CC(=NS(=O)(=O)c3ccccc3)c3ccccc3C2=O)cc1 | 466 | 6.88 | 509
6 | CCn1c(-c2ccc(O)cc2)nn(CN2CCN(Cc3ccc4c(c3)OCO4)CC2)c1=S | > 1200 | > 10 | > 1250
7 | CC(C)=CCCC1=CCC(CNCCCN(C)C)C(C)C1 (configuration not stated) | 415 | 18.9 | 1750
8 | CCCN1CCC(N2C[C@@H](NCc3ccc(OCc4ccccc4)cc3)C[C@H]2C(=O)NCCc2ccc3c(c2)OCO3)CC1 | 701 | 3.56 | 1070
9 | COc1ccc(NC2=C(c3ccc(OC)cc3)C(=O)c3ccccc32)cc1 | 423 | > 100 | 437
10 | CC1=C(C(=O)OC(C)C)C(c2cccc([N+](=O)[O-])c2)C2=C(CCCC2=O)N1 (configuration not stated) | 854 | > 100 | > 11100
11 | COc1ccc(-c2cc(C(=O)Nc3cc(Oc4ccc(NC(C)=O)cc4)cc([N+](=O)[O-])c3)c3ccccc3n2)cc1 | 2110 | > 100 | > 12500
12 | O=[N+]([O-])c1ccc(S(=O)(=O)NCCCCNc2ccnc3cc(Cl)ccc23)cc1 | 275 | 9.67 | 934
13 | O=[N+]([O-])c1cccc(C(Nc2nccs2)c2ccc3cccnc3c2O)c1 (configuration not stated) | 198 | 16.1 | 294
14 | Cc1cc(I)ccc1NC(=O)CNC(=O)OCc1ccccc1 | 1280 | > 100 | > 12500
15 | Cc1ccc(-n2c(SCc3cc(=O)n4ccccc4n3)nc3ccsc3c2=O)cc1C | > 1250 | > 10 | > 1160
16 | COc1ccc(C2CC(c3c(-c4ccccc4)c4cc(Cl)ccc4[nH]c3=O)=NO2)cc1 (configuration not stated) | > 359 | > 10 | 624
17 | CC(=O)Nc1ccc(C(=O)N2CCC(Oc3cccc(CN(C)Cc4cccc5ccccc45)c3)CC2)cc1 | 945 | > 10 | > 1250
18 | CCCCCN(C(=O)c1ccc(C(C)(C)C)cc1)C(CC)c1nc2ccccc2c(=O)n1-c1ccccc1OC (configuration not stated) | > 1250 | > 10 | > 117
19 | O=C1CN(C(=O)CC2CCCCC2)C(c2ccccc2)c2cc(Cl)ccc2N1 (configuration not stated) | 4570 | 46.3 | 7610
20 | CCC(c1nc2ccccc2c(=O)n1CCOC)N1CCNCC1 (configuration not stated) | > 469 | > 10 | 369
21 | O=C(Nc1ccc(-c2nc3cc(NC(=O)c4ccc(Br)o4)ccc3[nH]2)cc1)c1ccc(Br)o1 | 709 | 2.25 | 294
22 | COc1ccc(-c2c[n+](CC(=O)O[C@H]3C[C@H](C)CC[C@@H]3C(C)C)c3n2CCCCC3)cc1 | 404 | 16.5 | 450
23 | CCC1CN2CCC1CC2[C@@H](O)c1ccnc2ccc(OC)cc12 (some centres not stated) [DIHYDROQUINIDINE] | 25.7 | > 96 | 27.3
24 | COc1ccc(C=C2N=C(c3ccc(Cl)cc3)N(c3ccccc3)C2=O)cc1OC | 1990 | > 100 | > 12500
25 | CCOC(=O)c1[nH]c2ccc(OC)cc2c1N=NN(C)C | 966 | 68.6 | 447

Row | Structure (SMILES) | EC50 (Plasmodium falciparum [1]) [nM] | CC50 [2] [µM] | EC50 (Plasmodium falciparum [3]) [nM]
26 | COC(=O)c1c(-c2c(F)cccc2Cl)noc1C=CNc1ccc(OC)cc1 | 5290 | > 100 | 10200
27 | Cc1cccc(Nc2nc(NCc3ccco3)c3ccccc3n2)c1 | 326 | 4.93 | 266
28 | N#Cc1ccc(-c2cnc(N)c(-c3ccc(C(N)=O)cc3)n2)cc1 | 99.8 | > 100 | 60.3
29 | CCCCNC(=O)C(CC(C)C)N1C(=O)c2cc(NC(C)=O)ccc2NC(=O)[C@@H]1C (some centres not stated) | 67.2 | > 12.8 | 28.2
30 | CCCc1nc2ccc(NC(=O)NCC)cc2c(=O)n1Cc1ccc(-c2ccccc2)cc1 | 6320 | > 100 | 9050
31 | CC1CC(N(C(=O)c2ccc(Cl)cc2Cl)c2ccccc2)c2ccccc2N1C(=O)c1ccc(Cl)cc1 (configuration not stated) | 2530 | > 100 | 2780
32 | Oc1ccc(-c2ccccc2)cc1CN1CCC(c2ccccc2)CC1 | 204 | > 100 | 2420
33 | CC(C)(C)OC(=O)N1CCC(c2c(C(=O)Nc3cccc(C(F)(F)F)c3)cnn2-c2ccc(F)cc2F)CC1 | 990 | > 100 | 1270
34 | Cc1ccc(-c2c[n+](CC(=O)c3ccccc3Cl)c3n2CCC3)cc1 | 1110 | > 95.9 | 1010
35 | CCN1CCN(C/C=C/c2ccccc2[N+](=O)[O-])CC1 | 1410 | > 10 | > 1250
36 | COc1cc(COc2cc(N)c(Cl)cc2C(=O)CCC2CCN(CCNS(C)(=O)=O)CC2)cc(OC)c1 | < 8.52 | > 13.1 | > 788
37 | O=S(=O)(c1ccccc1)N1CCN(CC2CNCCO2)CC1 (configuration not stated) | 332 | 3.22 | 767
38 | Oc1ccc(Cl)cc1CNc1nc2ccccc2[nH]1 | 768 | 43.5 | 921
39 | COc1cc[n+](OC(=O)N2CCCCC2)c(C)c1 | 810 | 36.6 | 188
40 | CC(C)NC(=O)N1CCN(C(=O)COC(c2cccs2)c2cccnc2Cl)CC1 (configuration not stated) | 2020 | > 10 | > 1250
41 | O=C(Nc1ccc2nc3n(c(=O)c2c1)CCCCC3)C(=O)N1CCN(c2ccccc2)CC1 | 30.8 | > 100 | 133
42 | Cc1sc2nc(C3CC3)n(C3CCN(C(=O)c4ccccn4)CC3)c(=O)c2c1C | 2020 | > 10 | > 1250
43 | c1ccc(C[C@H]2CN(c3ccccc3)CCN2CCNCCOc2ccccc2)cc1 | 200 | > 5.32 | 261
44 | Cc1cc(C)c(S(=O)(=O)N2CCCC2CNC(=O)c2cccc([N+](=O)[O-])c2)c(C)c1 (configuration not stated) | 1230 | > 100 | 914
45 | CCN(Cc1ccccc1)c1ncnc2ccc(Br)cc12 | > 12500 | 95.3 | 7440
46 | CC1=C(CC(=O)c2cccs2)C(=O)c2ccccc2C1=O | 290 | 7.75 | 1240
47 | COc1cc(CN(CCCN2CCOCC2)C(=O)Nc2cccc(C)c2)ccc1OCc1ccccc1 | 8.39 | > 10 | > 1250
48 | FC(F)(F)c1cnc(Sc2nnc(-c3ccncc3)o2)c(Cl)c1 | 976 | 83.9 | 1870
49 | Cc1cc(C)nc(Nc2nc(C)c3cc(C)c(C)cc3n2)n1 | 829 | > 100 | 1320
